Columns and labels:
Assay type in all cases: biochemical
[1] = molecular target: T1, hemoglobin (HbA1C formation) (Homo sapiens, UniProt P68871+P69905); assay: Hemoglobin-δ-Gluconolactone (δ-Glu) assay, early stage glycation; conditions: 1 millimole/L inhibitor, δ-Glu treated whole blood, 16 hours at 37° C.
T1 construct: δ-Glu, an oxidized analogue of glucose, can react rapidly with hemoglobin within the red cells; from tissue; host or cells: fresh whole blood (red blood cells) from normal volunteers
T1 sequence (P68871 2-147 limits assumed): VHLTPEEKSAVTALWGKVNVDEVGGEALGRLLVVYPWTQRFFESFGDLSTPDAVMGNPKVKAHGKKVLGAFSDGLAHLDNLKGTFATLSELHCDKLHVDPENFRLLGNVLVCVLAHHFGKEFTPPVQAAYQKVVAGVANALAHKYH
T1 sequence (P69905 2-142 limits assumed): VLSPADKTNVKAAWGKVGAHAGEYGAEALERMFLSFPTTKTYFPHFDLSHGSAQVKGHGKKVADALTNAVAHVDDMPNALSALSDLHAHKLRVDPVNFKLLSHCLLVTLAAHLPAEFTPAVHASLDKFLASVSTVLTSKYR
Procedure: The δ-Glu assay is a specific method for investigation of inhibitors of the early stage of glycation. Evaluation of early glycation products (Amadori) formation on hemoglobin (HbA1C) is performed by incubating red blood cells with an oxidized form of glucose in the presence and the absence of the inhibitor compound followed by determination of HbA1C in the test versus the control (Rahbar and Nadler., 1999). […] By contrast, glucose requires weeks for an equivalent reaction to occur. We have used this finding to devise an assay method to measure early stage glycation of hemoglobin (Amadori product) and an assay to evaluate the ability of an inhibitor to inhibit HbA1C formation. Briefly, fresh blood was drawn in potassium-EDTA and prepared for incubation within 30 minutes of collection by mixing 200 μL of blood with 40 μL of either phosphate buffered-saline (PBS), pH 7.4, alone, PBS containing 50 millimoles/L δ-Glu (Sigma), or PBS containing 50 millimoles/L δ-Glu plus 1 millimole/L inhibitor. After incubation for 16 hours at 37° C., the percentage of glycated hemoglobin present was determined. The percentage of glycated Hb (HbA1C) was determined using a dedicated ion-exchange HPLC system (BIORAD DIAMAT). Blood samples were analyzed in triplicate. The % inhibition of HbA1C formation by the compound was calculated according to the following formula: […]
where A is HbA1C concentration in the baseline control tube not treated with δ-Glu, B is the HbA1C concentration in blood incubated with δ-Glu, C is the HbA1C content of the test tube treated both with δ-Glu and the inhibitor compound.
The amount of (HbA1C) formation using δ-Glu treated whole blood from normal volunteers using 1 millimole/L of the compounds is shown in FIG. 1. Levels of HbA1C in the δ-Glu treated blood is twice as high as the baseline control. Various inhibitors (compounds LR93-LR102) show different levels of HbA1C depending on their inhibitory potencies.

BSA = molecular target: T2, BSA (Bos taurus, UniProt P02769); assay: BSA-Glucose assay, glucose-mediated development of fluorescence of BSA; conditions: 7 days at 37° C., fluorescence 330/410 nm; for Percent Inhibition in the BSA-Glucose Assay: 1 millimole/L inhibitor
T2 construct: BSA (fraction V, essentially fatty acid free, low endotoxin) from Sigma; purchased Sigma
T2 sequence (P02769 25-607): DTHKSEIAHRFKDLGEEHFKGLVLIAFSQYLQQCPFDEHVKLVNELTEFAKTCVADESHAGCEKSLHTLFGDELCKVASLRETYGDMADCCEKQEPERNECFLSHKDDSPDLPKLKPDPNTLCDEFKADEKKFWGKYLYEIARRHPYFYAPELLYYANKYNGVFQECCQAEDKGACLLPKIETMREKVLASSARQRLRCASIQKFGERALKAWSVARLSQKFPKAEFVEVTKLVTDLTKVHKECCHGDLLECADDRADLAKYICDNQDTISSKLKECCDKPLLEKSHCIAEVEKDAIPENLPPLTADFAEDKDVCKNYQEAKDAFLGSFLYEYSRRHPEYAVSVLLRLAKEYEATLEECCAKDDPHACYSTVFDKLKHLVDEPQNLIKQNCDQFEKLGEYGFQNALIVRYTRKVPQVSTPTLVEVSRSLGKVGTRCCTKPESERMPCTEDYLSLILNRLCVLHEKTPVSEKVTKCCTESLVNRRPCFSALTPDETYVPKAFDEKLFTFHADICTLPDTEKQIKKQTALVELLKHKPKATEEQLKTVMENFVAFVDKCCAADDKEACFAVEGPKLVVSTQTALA
Procedure: This test is used to evaluate the ability of the inhibitors to inhibit glucose-mediated development of fluorescence of BSA (Ikeda et al., 1996). Triplicate samples of BSA (fraction V, essentially fatty acid free, low endotoxin) from Sigma 50 mg/mL and 800 mM glucose (144 mg/mL) in […] phosphate buffer pH 7.4 containing NaN3 0.2 g/L was incubated under aseptic conditions at 37° C. for 7 days in the presence or absence of various concentrations of the compounds. After 7 days of incubation each sample was examined for the development of specific fluorescence (excitation, 330 nm; emission, 410 nm). The % inhibition of AGE formation in the test sample versus control was calculated for each inhibitor compound. Aminoguanidine (50 mM) was used as a positive control.
This assay method is mostly for the inhibitors of late glycation and AGE formation (post-Amadori). The results obtained by this assay show all ten compounds investigated here have strong inhibitory effects on post-Amadori glycation, AGE formation and AGE crosslinking.

G.K. peptide = assay: N-Acetyl-Glycyl-Lysine Methyl Ester (G.K. Peptide)-Ribose assay; conditions: 24 hours at 37° C., fluorescence 330/415 nm; for Percent Inhibition in the G.K.-Ribose Assay: 1 millimole/L inhibitor
Procedure: Evaluation of the late glycation products (AGEs), and AGE-inhibition by the new inhibitor compounds was tested by incubation of G.K. peptide in ribose in the presence or the absence of the agent, followed by determination of chromophores generated in the course of glycation and AGE formation through determination of their specific fluorescence. The Nagaraj et al. (1996) method used to evaluate the ability of the compounds of the present invention to inhibit the crosslinking of N-acetylglycyl-lysine methyl ester in the presence of ribose was as follows: Stock Solutions: 0.5 M sodium phosphate buffer pH 7.4 containing NaN3 0.2 g/L GK peptide (Sigma) 80 mg/mL in 0.5 M sodium phosphate buffer pH 7.4 Ribose 800 mM (120 mg/mL) in 0.5 M phosphate buffer Triplicate samples of equal volumes (0.1 mL) of the 3 stock solutions were mixed together, filtered through a 0.2 micron filter (Corning) and incubated under aseptic conditions for 24 hours at 37° C. The inhibitor compounds were added to a final concentration of 1 millimole/L. At the end of the incubation period, samples were analyzed for their specific fluorescence (excitation, 330 nm; emission, 415 nm). The % inhibition by different concentrations of inhibitor was calculated as described above. Aminoguanidine was used at 50 mM as a positive control. […] The results of this assay indicate that all ten compounds investigated here have strong inhibitory effects and block specific fluorescence of proteins AGE in these separate determinations.

[2] = molecular target: T3, collagen-AGE-BSA crosslinking (Bos taurus, UniProt P02769); assay: ELISA assay, crosslinking of AGE-BSA to rat tail-tendon-collagen coated plate; conditions: for Inhibition of AGE-protein crosslinking (in words): ELISA, FIGS. 4A-C, 0.1-0.5 mM; for Effectiveness relative to pyridoxamine, inhibition of AGE-protein-crosslinking: compared with pyridoxamine (Khalifah et al., 1999)
T3 construct: purchased Becton Dickinson
T3 sequence (P02769 25-607): as above
Procedure: A special ELISA technique (Al-abed et al., 1999) was used to evaluate the ability of the compounds being studied to inhibit the crosslinking of glycated-BSA (AGE-BSA) to a rat tail-tendon-collagen coated 96 well plate (Biocoat Cell Environment, Becton Dickinson). Crosslinking of AGE-BSA to a rat tail-tendon-collagen coated plate was performed with and without the testing compound at the desired concentrations. The uncross-linked AGE-BSA was then removed by washing the wells. The AGE-BSA crosslinked to the tail-tendon-collagen coated plate was then quantified by a polyclonal antibody raised against AGE-RNase in our laboratory. Positive results in the assay indicate that the inhibitor is capable of reducing the amount of AGE-BSA which crosslinks with collagen. Aminoguanidine was used as positive control.

Row | Percent Inhibition of HbA1c formation in the δ-Glu Assay [1] [%] | inhibition at 50000 µM (BSA; aminoguanidine 50 mM, read-out: Percent Inhibition in the BSA-Glucose Assay (positive control)) [%] | Percent Inhibition in the BSA-Glucose Assay (BSA) [%] | Effectiveness relative to pyridoxamine, inhibition of AGE-protein-crosslinking [2] [times] | SMILES | Percent Inhibition in the G.K.-Ribose Assay (positive control) (G.K. peptide; aminoguanidine 50 mM) [%] | Percent Inhibition in the G.K.-Ribose Assay (G.K. peptide) [%] | Inhibition of AGE-protein crosslinking (in words) [2]
1 | 12.1 | 74 |  |  | N=C(N)NN [AG, aminoguanidine, reference compound] | 67 |  | 
2 | 49.2 |  | 35 |  | CC(C)(Oc1ccc(Cl)cc1)C(=O)NC1(C(=O)O)CCCCC1 [LR93] |  | 42.8 | 
3 | 28.5 |  | 26.8 |  | CC(C)(Oc1ccc(NC(=O)Nc2cc(Cl)cc(Cl)c2)cc1)C(=O)N1CCCCC1C(=O)O (stereo not shown) [LR94] |  | 33.7 | 
4 | 61.9 |  | 34 |  | CC(C)C[C@H](NC(=O)C(C)(C)Oc1ccc(NC(=O)Nc2cc(Cl)cc(Cl)c2)cc1)C(=O)O [LR95] |  | 29.5 | 
5 | 57.1 |  | 30 | 2 to 3 | COC(=O)CC[C@H](NC(=O)C(C)(C)Oc1ccc(NC(=O)Nc2cc(Cl)cc(Cl)c2)cc1)C(=O)O [LR96] |  | 42.4 | strong inhibitors of AGE-protein crosslinking
6 | 36.5 |  | 26.2 |  | CC(C)(Oc1ccc(NC(=O)Nc2cc(Cl)cc(Cl)c2)cc1)C(=O)NCCCC(=O)O [LR97] |  | 33.3 | 
7 | 42.8 |  | 26.7 |  | CC(C)(Oc1ccc(NC(=O)Nc2cc(Cl)cc(Cl)c2)cc1)C(=O)NCC(=O)O [LR98] |  | 37.3 | 
8 | 53.9 |  | 30.9 | 2 to 3 | CC(C)(Oc1ccc(NC(=O)Nc2cc(Cl)cc(Cl)c2)cc1)C(=O)Nc1ccc(C(=O)O)cc1 [LR99] |  | 39.5 | strong inhibitors of AGE-protein crosslinking
9 | 52.4 |  | 31.9 |  | CC(C)(Oc1ccc(NC(=O)Nc2cc(Cl)cc(Cl)c2)cc1)C(=O)NC1(C(=O)O)CCCC1 [LR100] |  | 28.5 | 

Source: patent US6605642B2, “Inhibitors of formation of advanced glycation endproducts (AGES)” (City of Hope, priority 1999, dated 2003)
